Values quoted from earlier work in patent US20060014801A1, “Prevention and treatment of cognitive impairment using (R)-(-)-5-methyl-1-nicotynoyl-2-pyrazoline (MNP) and analogs” (The Johns Hopkins University, priority 2002, published 2006).

Test system: aged rats
Details: cited from earlier work

Question: For CO/N=C(\C(=O)N[C@@H]1C(=O)N2C(C(=O)O)=C(CSc3nc(=O)c(=O)[nH]n3C)CS[C@H]12)c1csc(N)n1 [ceftriaxone], which Cognitive function is on record?
Answer: improvements of cognitive function
